# Data taken from patent publication US20230151025A1, “SUBSTITUTED THIAZOLOPYRIDINES, SALTS THEREOF AND THEIR USE AS HERBICIDALLY ACTIVE SUBSTANCES” (Bayer Aktiengesellschaft, priority 2020, published 2023).
# Tests used:
# Type in all cases: in vivo
# [1] = test system: Alopecurus myosuroides (ALOMY); assay: Herbicidal post-emergence action (D), 320 g/ha; settings: ca. 3 weeks
# Procedure, shortened: (§1)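 Seedlings reaching the single-leaf stage 2 to 3 weeks after sowing in sandy loam received a foliar spray of the formulated compound (WP or EC, 0.5% additive, 600 l water/ha). Damage is rated visually after about 3 weeks in the greenhouse as percent effect relative to untreated plants.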
# [2] = test system: Polygonum convolvulus (POLCO); assay: Herbicidal post-emergence action (D), 320 g/ha; settings: ca. 3 weeks
# Procedure, shortened: as §1
# Veronica persica (VERPE) [3] = assay: Herbicidal post-emergence action (D), 320 g/ha; settings: ca. 3 weeks
# Procedure, shortened: as §1
# [4] = test system: Echinochloa crus-galli (ECHCG); assay: Herbicidal post-emergence action (D), 320 g/ha; settings: ca. 3 weeks
# Procedure, shortened: as §1
# [5] = test system: Alopecurus myosuroides (ALOMY); assay: Herbicidal pre-emergence action (C), 320 g/ha; settings: ca. 3 weeks
# Procedure, shortened: (§2)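 Seeds sown in sandy loam and covered with soil; compounds formulated as WP or EC were sprayed onto the covering soil as aqueous suspension/emulsion with 0.5% additive at 600 l water/ha. Pots kept in greenhouse; damage graded visually after ca. 3 weeks versus untreated controls (0% = as control, 100% = plants dead).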
# Setaria viridis (SETVI) [6] = assay: Herbicidal pre-emergence action (C), 320 g/ha; settings: ca. 3 weeks
# Procedure, shortened: as §2
# Veronica persica (VERPE) [7] = assay: Herbicidal pre-emergence action (C), 320 g/ha; settings: ca. 3 weeks
# Procedure, shortened: as §2
# [8] = test system: Amaranthus retroflexus (AMARE); assay: Herbicidal pre-emergence action (C), 320 g/ha; settings: ca. 3 weeks
# Procedure, shortened: as §2
# [9] = test system: Echinochloa crus-galli (ECHCG); assay: Herbicidal pre-emergence action (C), 320 g/ha; settings: ca. 3 weeks
# Procedure, shortened: as §2
# Avena fatua = assay: Herbicidal pre-emergence action (C), 320 g/ha; settings: ca. 3 weeks
# Procedure, shortened: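 Weed and crop seeds sown in sandy loam; WP or EC formulations applied pre-emergence to the soil surface as aqueous suspension/emulsion with 0.5% additive at 600 l water/ha. Greenhouse-grown under optimum conditions; damage visually scored after ca. 3 weeks versus untreated controls (0% = as control, 100% = plants dead).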
# Lolium rigidum (LOLRI) = assay: Herbicidal post-emergence action (D), 320 g/ha; settings: ca. 3 weeks
# Procedure, shortened: as §1
# [10] = test system: Amaranthus retroflexus (AMARE); assay: Herbicidal post-emergence action (D), 320 g/ha; settings: ca. 3 weeks
# Procedure, shortened: as §1
# [11] = test system: Matricaria inodora (MATIN); assay: Herbicidal pre-emergence action (C), 320 g/ha; settings: ca. 3 weeks
# Procedure, shortened: as §2
# [12] = test system: Matricaria inodora (MATIN); assay: Herbicidal post-emergence action (B), 1280 g/ha; settings: rated visually after about 3 weeks vs untreated controls
# Procedure, shortened: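 Greenhouse-grown weeds at the one-leaf stage received a foliar spray of the formulated compound (WP or EC, 0.5% additive, 600 L/ha). Damage was scored visually after about 3 weeks on a 0–100% scale against untreated plants.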
# Setaria viridis (SETVI) [13] = assay: Herbicidal post-emergence action (D), 320 g/ha; settings: ca. 3 weeks
# Procedure, shortened: as §1
# Viola tricolor (VIOTR) = assay: Herbicidal pre-emergence action (C), 320 g/ha; settings: ca. 3 weeks
# Procedure, shortened: as §2
# [14] = test system: Polygonum convolvulus (POLCO); assay: Herbicidal pre-emergence action (C), 320 g/ha; settings: ca. 3 weeks
# Procedure, shortened: as §2
# [15] = test system: Digitaria sanguinalis (DIGSA); assay: Herbicidal post-emergence action (D), 320 g/ha; settings: ca. 3 weeks
# Excerpt: Seeds of mono- and dicotyledonous weed plants and crop plants were sown, in plastic or organic planting pots, in sandy loam, covered with soil and grown in a greenhouse under controlled growth conditions. 2 to 3 weeks after sowing, the test plants were sprayed in the single-leaf stage. The compounds according to the invention, formulated in form of wettable powders (WP) or as emulsifiable concentrates (EC), were sprayed onto the green plant parts as aqueous suspension or emulsion, with the addition of 0.5% of an additive, at an application rate of 600 l of water/ha (converted). The test plants were placed in the greenhouse for ca. 3 weeks under optimum growth conditions, and then the effect of the preparations was assessed visually in comparison with untreated controls (herbicidal effect in percent (%): 100% effect=plants have died off, 0% effect=as control plants).
# Tables D1 to D13 below show the effects of selected compounds of the general formula (I) according to table 1 on various harmful plants and an application rate corresponding to 320 g/ha obtained by the experimental procedure mentioned above.
# [16] = test system: Abutilon theophrasti (ABUTH); assay: Herbicidal post-emergence action (D), 320 g/ha; settings: ca. 3 weeks
# Procedure, shortened: as §1
# [17] = test system: Abutilon theophrasti (ABUTH); assay: Herbicidal pre-emergence action (C), 320 g/ha; settings: ca. 3 weeks
# Procedure, shortened: as §2
SMILES,herbicidal effect ALOMY [1],herbicidal effect POLCO [2],herbicidal effect VERPE (Veronica persica (VERPE) [3]),herbicidal effect ECHCG [4],herbicidal effect ALOMY [5],herbicidal effect SETVI (Setaria viridis (SETVI) [6]),herbicidal effect VERPE (Veronica persica (VERPE) [7]),herbicidal effect AMARE [8],herbicidal effect ECHCG [9],herbicidal effect AVEFA (Avena fatua),herbicidal effect LOLRI (Lolium rigidum (LOLRI)),herbicidal effect AMARE [10],herbicidal effect MATIN [11],herbicidal activity MATIN [12],herbicidal effect SETVI (Setaria viridis (SETVI) [13]),herbicidal effect VIOTR (Viola tricolor (VIOTR)),herbicidal effect POLCO [14],herbicidal effect DIGSA [15],herbicidal effect ABUTH [16],herbicidal effect ABUTH [17]
CCc1cc2scnc2nc1-c1cccc(F)c1 [Example I-029],90%,90%,90%,90%,100%,100%,90%,90%,100%,,,,,,,,,,,
CCc1cc2scnc2nc1-c1ccccc1C [Example I-093],90%,,90%,,100%,100%,90%,90%,100%,80%,80%,90%,90%,100%,,,,,,
Fc1ccccc1-c1nc2ncsc2cc1C1CC1 [Example I-102],,80%,80%,,90%,100%,80%,90%,100%,,,80%,,90%,80%,80%,,,,
CCc1cc2scnc2nc1-c1ccc(F)cc1F [Example I-030],80%,90%,90%,,100%,100%,90%,90%,100%,,,,,,,,80%,,,
Cc1cc2scnc2nc1-c1sccc1Cl [Example I-137],90%,80%,80%,90%,100%,100%,90%,90%,100%,80%,,90%,90%,90%,,90%,,90%,,
CCc1cc2scnc2nc1-c1ccccc1F [Example I-023],90%,90%,90%,90%,100%,100%,90%,80%,100%,,,100%,90%,,80%,80%,80%,80%,80%,80%
"Cc1cc2scnc2nc1-c1cccc(F)c1 [Example I-003, 5-(3-fluorophenyl)-6-methyl-thiazolo[4,5-b]pyridine]",90%,,90%,,100%,100%,90%,80%,100%,,,80%,,,80%,80%,80%,,,
Cc1cc2scnc2nc1-c1ccc(F)cc1F [Example I-122],90%,90%,90%,80%,100%,100%,90%,90%,100%,100%,,80%,,,,,,,,
COc1ccccc1-c1nc2ncsc2cc1C [Example I-124],90%,,90%,80%,100%,100%,90%,90%,100%,,,,80%,,,90%,,,,
Cc1cc2scnc2nc1-c1sccc1C [Example I-143],90%,,80%,80%,100%,100%,90%,90%,100%,90%,,80%,90%,100%,80%,,,,,80%
Fc1ccccc1-c1nc2ncsc2cc1I [Example I-188],90%,80%,90%,100%,100%,100%,90%,90%,100%,100%,,90%,,90%,100%,,80%,,,80%
